Patent publication US11286268B1, “EIF4E-inhibiting compounds and methods” (EFFECTOR THERAPEUTICS, INC., priority 2019, dated 2022)
Like-named read-outs stand apart in the source and are kept apart here.

Target: recombinant eIF4E (Homo sapiens (Human), UniProt P06730)
Assay: Fluorescence polarization competition assay for eIF4E binding potency
Method in brief: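 Competition of test compound against 20 nM EDA-m^7GDP-ATTO-550 for 75 nM recombinant eIF4E, pre-incubated 5 min, in 20 mM Tris pH 7.5, 100 mM NaCl, 1 mM DTT, 0.02% Tween-20, 1% DMSO. Equilibrated 30 min at room temperature, dark; fluorescence polarization read. IC50 from 8-point, 3-fold dilution series.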

[1] = fluorescence polarization competition, 75 nM recombinant eIF4E, 20 nM EDA-m7GDP-ATTO-550, IC50 class, read-out: elF4E FP
[2] = inhibition of eIF4E/EDA-m7GDP-ATTO-550 binding by 50%, Table 4B calculated values, read-out: IC50

recombinant eIF4E, sequence (P06730 whole entry): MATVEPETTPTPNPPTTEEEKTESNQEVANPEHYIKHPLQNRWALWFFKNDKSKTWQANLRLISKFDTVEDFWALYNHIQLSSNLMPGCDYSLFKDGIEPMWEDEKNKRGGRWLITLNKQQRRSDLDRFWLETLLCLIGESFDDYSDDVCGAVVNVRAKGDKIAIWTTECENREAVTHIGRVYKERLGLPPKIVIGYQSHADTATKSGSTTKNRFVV

SMILES: CCc1cccc(-c2c(C(F)(F)F)cc3nc(C)n(CCOc4ccc(Cl)cc4-c4cc(C)nc5c(C(=O)O)csc45)c(=O)c3c2C#N)n1 [compound 776]
- IC50 [1]: < 50 nM
- IC50 [2]: 36.5 nM

SMILES: Cc1cc(-c2cc(Cl)ccc2OCCn2c(C)nc3cc(C(F)(F)F)c(-c4cc(F)ccn4)c(C#N)c3c2=O)c2scc(C(=O)O)c2n1 [compound 777]
- IC50 [1]: 50 to 1000 nM
- IC50 [2]: 53.3 nM

SMILES: Cc1cc(-c2c(F)cc3nc(C)n(CCOc4ccc(Cl)cc4-c4cc(C)nc5c(C(=O)O)csc45)c(=O)c3c2C#N)ccn1 [compound 778]
- IC50 [1]: < 50 nM
- IC50 [2]: 0.0702 nM

SMILES: Cc1cc(-c2cc(Cl)ccc2OCCn2c(C)nc3cc(C(F)(F)F)c(-c4ccn(C)n4)c(C#N)c3c2=O)c2scc(C(=O)O)c2n1 [compound 779]
- IC50 [1]: < 50 nM
- IC50 [2]: 9.54 nM

SMILES: CC(=O)c1nc2c(=O)n(CCOc3ccc(Cl)cc3-c3cc(C)nc4c(C(=O)O)csc34)c(C)nc2cc1C(F)(F)F [compound 780]
- IC50 [1]: < 50 nM
- IC50 [2]: 9.6 nM

SMILES: Cc1cc(-c2cc(Cl)ccc2OCCn2c(C)nc3cc(C(F)(F)F)c(C(=O)N(C)C)nc3c2=O)c2scc(C(=O)O)c2n1 [compound 781]
- IC50 [1]: < 50 nM
- IC50 [2]: 3.12 nM

SMILES: Cc1cc(-c2cc(Cl)ccc2OCCn2c(C)nc3cc(C(F)(F)F)c(S(C)(=O)=O)nc3c2=O)c2scc(C(=O)O)c2n1 [compound 782]
- IC50 [1]: < 50 nM
- IC50 [2]: 4.03 nM

SMILES: C#Cc1nc2c(=O)n(CCOc3ccc(Cl)cc3-c3cc(C)nc4c(C(=O)O)csc34)c(C)nc2cc1C(F)(F)F [compound 783]
- IC50 [1]: < 50 nM
- IC50 [2]: 14.8 nM

SMILES: CC#Cc1nc2c(=O)n(CCOc3ccc(Cl)cc3-c3cc(C)nc4c(C(=O)O)csc34)c(C)nc2cc1C(F)(F)F [compound 784]
- IC50 [1]: < 50 nM
- IC50 [2]: 13.7 nM

SMILES: Cc1cc(-c2cc(Cl)ccc2OCCn2c(C)nc3cc(C(F)(F)F)c(C#N)nc3c2=O)c2scc(C(=O)O)c2n1 [compound 785]
- IC50 [1]: < 50 nM
- IC50 [2]: 18.2 nM

SMILES: Cc1cc(-c2cc(Cl)ccc2OCCn2c(C)nc3cc(C(F)(F)F)c(-c4ccn(C)n4)nc3c2=O)c2scc(C(=O)O)c2n1 [compound 787]
- IC50 [1]: < 50 nM
- IC50 [2]: 10.9 nM

SMILES: Cc1cc(-c2cc(Cl)ccc2OCCn2c(C)nc3cc(C(F)(F)F)c(C(=O)N(C)C)c(C#N)c3c2=O)c2scc(C(=O)O)c2n1 [compound 789]
- IC50 [1]: < 50 nM
- IC50 [2]: 8.96 nM

SMILES: C#Cc1c(C(F)(F)F)cc2nc(C)n(CCOc3ccc(Cl)cc3-c3cc(C)nc4c(C(=O)O)csc34)c(=O)c2c1C#N [compound 790]
- IC50 [1]: < 50 nM
- IC50 [2]: 17.8 nM

SMILES: Cc1cc(-c2cc(Cl)ccc2OCCn2c(C)nc3cnc(N(C)C)c(C#N)c3c2=O)c2scc(C(=O)O)c2n1 [compound 791]
- IC50 [1]: < 50 nM
- IC50 [2]: 3.59 nM

SMILES: Cc1cc(-c2cc(Cl)ccc2OCCn2c(C)nc3cnc(Cl)c(C#N)c3c2=O)c2scc(C(=O)O)c2n1 [compound 792]
- IC50 [1]: < 50 nM
- IC50 [2]: 2.44 nM

SMILES: CCc1cc(-c2cc(Cl)ccc2OCCn2c(C)nc3cnc(C4CC4)c(C#N)c3c2=O)c2scc(C(=O)O)c2n1 [compound 793]
- IC50 [1]: < 50 nM
- IC50 [2]: 4.81 nM

SMILES: Cc1ccc(-c2cc(Cl)ccc2OCCn2c(C)nc3cnc(C4CC4)c(C#N)c3c2=O)c2scc(C(=O)O)c12 [compound 794]
- IC50 [1]: < 50 nM
- IC50 [2]: 3.41 nM

SMILES: Cc1cc(-c2cc(Cl)ccc2OCCn2c(C)nc3cc(C(F)(F)F)c(C4CC4)nc3c2=O)c2scc(C(=O)O)c2n1 [compound 795]
- IC50 [1]: < 50 nM
- IC50 [2]: 12.1 nM

SMILES: Cc1cc(-c2cc(Cl)ccc2OCCn2c(C)nc3cc(C(F)(F)F)c(N4CC(=O)C4)nc3c2=O)c2scc(C(=O)O)c2n1 [compound 796]
- IC50 [1]: < 50 nM
- IC50 [2]: 3.27 nM

SMILES: Cc1cc(-c2cc(Cl)ccc2OCCn2c(C)nc3cc(C(F)(F)F)c(N4CC(O)C4)nc3c2=O)c2scc(C(=O)O)c2n1 [compound 797]
- IC50 [1]: < 50 nM
- IC50 [2]: 6.79 nM

SMILES: Cc1cc(-c2cc(Cl)ccc2OCCn2c(C)nc3cc(C(F)F)c(N4CC(F)(F)C4)c(C#N)c3c2=O)c2scc(C(=O)O)c2n1 [compound 799]
- IC50 [1]: < 50 nM
- IC50 [2]: 9.35 nM

SMILES: Cc1cc(-c2cc(Cl)ccc2OCCn2c(C)nc3cc(C(F)(F)F)c(N4CCC(C)CC4)nc3c2=O)c2scc(C(=O)O)c2n1 [compound 800]
- IC50 [1]: < 50 nM
- IC50 [2]: 32.4 nM

SMILES: Cc1cc(-c2cc(Cl)ccc2OCCn2c(C)nc3cc(C(F)(F)F)c(N4CCC(C)(C)CC4)nc3c2=O)c2scc(C(=O)O)c2n1 [compound 801]
- IC50 [1]: < 50 nM
- IC50 [2]: 17 nM

SMILES: Cc1cc(-c2cc(Cl)ccc2OCCn2c(C)nc3cc(C(F)(F)F)c(N4CCC(F)(F)CC4)nc3c2=O)c2scc(C(=O)O)c2n1 [compound 802]
- IC50 [1]: < 50 nM
- IC50 [2]: 35.9 nM

SMILES: Cc1cc(-c2cc(Cl)ccc2OCCn2c(C)nc3cc(C(F)(F)F)c(N4CCC(C(F)(F)F)CC4)nc3c2=O)c2scc(C(=O)O)c2n1 [compound 803]
- IC50 [1]: 50 to 1000 nM
- IC50 [2]: 161 nM

SMILES: Cc1cc(-c2cc(Cl)ccc2OCCn2c(C)nc3cc(F)c(C4=CCCC4)c(C#N)c3c2=O)c2scc(C(=O)O)c2n1 [compound 805]
- IC50 [1]: < 50 nM
- IC50 [2]: 13.6 nM

SMILES: Cc1nc2cc(CN(C)C)c(OC(F)F)c(C#N)c2c(=O)n1CCOc1ccc(Cl)cc1-c1cccc(C(=O)O)c1 [compound 806]
- IC50 [1]: < 50 nM
- IC50 [2]: 3.58 nM

SMILES: Cc1cc(-c2cc(Cl)ccc2OCCn2c(C)nc3cnc(C4CC4(F)F)c(C#N)c3c2=O)c2scc(C(=O)O)c2n1 (centres unmarked) [compound 807]
- IC50 [1]: < 50 nM

SMILES: Cc1nc2cc(C(F)(F)F)c(N3CCN(C)CC3)c(C#N)c2c(=O)n1CCOc1ccc(Cl)cc1 [compound 808]
- IC50 [1]: 50 to 1000 nM
- IC50 [2]: 52.4 nM

SMILES: C=Cc1ncc2nc(C)n(CCOc3ccc(Cl)cc3-c3cc(C)nc4c(C(=O)O)csc34)c(=O)c2c1C#N [compound 809]
- IC50 [1]: < 50 nM
- IC50 [2]: 16 nM

SMILES: Cc1cc(-c2cc(Cl)ccc2OCCn2c(C)nc3cnc(N4CCN(C)CC4)cc3c2=O)c2scc(C(=O)O)c2n1 [compound 810]
- IC50 [1]: < 50 nM

SMILES: Cc1cc(-c2cc(Cl)ccc2OCCn2c(C)nc3ccc(N4CCN(C)CC4)cc3c2=O)c2scc(C(=O)O)c2n1 [compound 811]
- IC50 [1]: 50 to 1000 nM

SMILES: Cc1cc(-c2cc(Cl)ccc2OCCn2c(C)nc3ccc(N4CCN(C)CC4)c(C#N)c3c2=O)c2sc(C)c(C(=O)O)c2n1 [compound 812]
- IC50 [1]: < 50 nM
- IC50 [2]: 30 nM

SMILES: CCc1ncc2nc(C)n(CCOc3ccc(Cl)cc3-c3ccnc4c(C(=O)O)csc34)c(=O)c2c1C#N [compound 813]
- IC50 [1]: < 50 nM
- IC50 [2]: 4.04 nM

SMILES: Cc1nc2cnc(N3CCN(C)C(C)(C)C3)c(C#N)c2c(=O)n1CCOc1ccc(Cl)cc1-c1ccnc2c(C(=O)O)csc12 [compound 815]
- IC50 [1]: < 50 nM
- IC50 [2]: 3.31 nM

SMILES: Cc1nc2c(N3CCN(C)CC3(C)C)ncc(C#N)c2c(=O)n1CCOc1ccc(Cl)cc1-c1ccnc2c(C(=O)O)csc12 [compound 816]
- IC50 [1]: < 50 nM
- IC50 [2]: 6.87 nM

SMILES: Cc1nc2c(N3CCN(CCF)C4CC43)ncc(C#N)c2c(=O)n1CCOc1ccc(Cl)cc1-c1ccnc2c(C(=O)O)csc12 (centres unmarked) [compound 817]
- IC50 [1]: < 50 nM

SMILES: Cc1nc2c(N3CCN(CC(F)F)C4CC43)ncc(C#N)c2c(=O)n1CCOc1ccc(Cl)cc1-c1ccnc2c(C(=O)O)csc12 (centres unmarked) [compound 818]
- IC50 [1]: < 50 nM
- IC50 [2]: 13.1 nM

SMILES: Cc1nc2cnc(OC3CCNCC3)c(C#N)c2c(=O)n1CCOc1ccc(Cl)cc1-c1ccnc2c(C(=O)O)csc12 [compound 819]
- IC50 [1]: < 50 nM
- IC50 [2]: 28.2 nM
